Test results from patent US9120838B2, “Saccharide conjugates” (Curators of the University of Missouri, priority 2011, dated 2015).
Read-outs that look alike come from different tables or passages of the source.

Tests used:
[1] = test system: LPS-induced TNFα production; experiment: LPS antagonism assay: inhibition of LPS-induced TNFα production in THP-1 macrophages (ELISA); format: cell-based, human; conditions: for LPS antagonistic activity: increasing concentrations, 10 ng/mL LPS 6 h; for inhibitory activity against LPS-induced TNFα production: concentration range of 0.1 nM to 10 μM
Experimental: Synthetic compounds in solid form were dissolved in tetrahydrofuran (THF), aliquotted in small volumes, vacuum-centrifuged for 1 h and stored at −80° C. as dry compounds. For cellular treatment, an aliquot was dissolved in an appropriate volume of dimethylsulfoxide (DMSO) to give a concentrated working stock solution. This stock solution was further diluted in DMSO to give the desired concentration range. The final concentration of DMSO in the cell treatments was always maintained at 0.6%. Concentrations of Fmoc-containing compounds were verified by absorbance using an extinction coefficient of 7800 M^−1 cm^−1 at 301 nm.
THP-1 cells were obtained from ATCC (Manassas, Va.) and maintained in RPMI-1640 culture medium (HyClone, Logan, Utah) containing 2 mM L-glutamine, 25 mM HEPES, 1.5 g/L sodium bicarbonate, 10% fetal bovine serum (FBS) (HyClone), 50 units/mL penicillin, 50 μg/mL streptomycin (HyClone), and 50 μM β-mercaptoethanol at 37° C. in 5% CO2. For cellular assay, THP-1 monocytes were centrifuged and resuspended in a fresh growth medium to a cell density of 5×10^5 cells/mL Cells were then seeded in a 48-well plate and differentiated into adherent macrophages by treatment with 10 ng/mL phorbol 12-myristate 13-acetate (PMA) (Sigma) for 24 h at 37° C. in 5% CO2. The non-adherent cells were removed and the adherent cells were washed and replenished with reduced FBS growth medium. For the two wells set aside for calculating percent differentiation, the cells were washed with PBS (Hyclone) prior to removal by 0.25% trypsin-EDTA. Cells in a separate well were removed with 0.25% trypsin and counted under the microscope using a hemocytometer to determine the number of adherent macrophages. For the remaining wells, the cells were pre-incubated with LPS antagonist compounds at different concentrations for 30 min followed by addition of 10 ng/mL ultrapure LPS from E. coli K12 (InvivoGen, San Diego, Calif.) for 6 h at 37° C. in 5% CO2. 0.6% DMSO was used as a control. The cell medium was collected and stored at −20° C. until analyzed by ELISA for secreted TNFα production.

TNFα production = experiment: Agonist activity: secreted TNFα in THP-1 macrophages in the absence of LPS; format: cell-based, human; conditions: for concentration range with agonist activity: FIG. 4 and FIG. 6; for agonist activity in the absence of LPS: tested in the absence of LPS
THP-1 macrophages = experiment: Cell viability (toxicity) by XTT reduction assay in THP-1 macrophages; format: cell-based, human; conditions: for toxicity (in words): THP-1 macrophages; for concentration at which toxic to the cells / cell viability compromised: XTT reduction assay
Experimental: Cell viability was monitored using an XTT [2,3-bis(2-methoxy-4-nitro-5-sulfophenyl)-2H-tetrazolium-5-carboxanilide] assay. Macrophage metabolic activity was assessed by probing mitochondrial reduction of XTT (Sigma) which is a measure of viability (or toxicity) in response to the synthetic antagonists. Following 6 h treatment with antagonist compounds and LPS, the macrophages were washed with PBS (Hyclone) and incubated with XTT (0.33 mg/mL) and phenazine methosulfate (PMS) (8.3 μM) (Acros, Morris Plains, N.J.) to a final concentration of 0.33 mg/mL and 8.3 μM respectively for 2 h at 37° C. in 5% CO2. The cellular toxicity was then assessed in a platereader using absorbance of reduced XTT at 467 nm.

LPS = conditions: Boons et al.; Shiozaki et al.; Peri et al.; cited from earlier work
[2] = human macrophage cells (THP-1), 10 ng/mL LPS for 6 h, read-out: TNFα inhibition (IC50)
[3] = concentration range showing agonist activity, human macrophage cells
[4] = concentration at which toxicity is seen, human macrophage cells, XTT reduction
[5] = human macrophage cells (THP-1), 10 ng/mL LPS for 6 h

Q: For `CO[C@H]1OC(COC(=O)CCC(=O)OC[C@H](NC(=O)OCC2c3ccccc3-c3ccccc32)C(=O)O)[C@@H](O)[C@H](OCc2ccccc2)C1OCc1ccccc1` (stereo partly drawn) [Compound 11, Methyl 2,3-di-O-benzyl-6-O-(4-((S)-2-(9-fluorenylmethoxyearbonyl)amino-2-carboxyethyl)oxy-4-oxobutanoyl)-α-D-glycopyranoside], which “concentrations at which LPS-induced TNFα production is significantly inhibited” value ([1]; THP-1 macrophages) is on record?
A: The value was “greater than 10 μM”.

Q: And the “LPS antagonistic activity” value ([1]; THP-1 macrophages)?
A: Its value is “displays LPS antagonistic activity”.

Q: What about the IC50 [1, 2] of the same compound?
A: The IC50 was 46 µM.

Q: And the Agonist activity (TNFα production; [3])?
A: The Agonist activity was “None observed”.

Q: And the “toxicity (in words)” value (THP-1 macrophages; XTT reduction)?
A: The value was “cell toxicity”.

Q: And the “concentration at which toxic to the cells / cell viability compromised” value (THP-1 macrophages)?
A: Its value is 30 to 100 µM.

Q: And the Toxicity (THP-1 macrophages; [4])?
A: Its Toxicity is greater than 10 µM.

Q: For `CCCCCCCCCCCCCCO[C@H]1[C@@H](OC)O[C@H](C[N+](C)(C)C2CCCC2)[C@@H](O)[C@@H]1OCCCCCCCCCCCCCC` [Compound 4, reference compound], which inhibition range ([1]; LPS-induced TNFα production) is on record?
A: Its inhibition range is 3 to 10 µM.

Q: And the IC50 [1, 2]?
A: Its IC50 is 6 µM.

Q: What about the “antagonistic activity against LPS as reported in the literature” value (LPS) of the same compound?
A: Its value is “provide antagonistic activity”.

Q: And the “concentration range with agonist activity” value (TNFα production)?
A: The value was greater than 10 µM.

Q: And the Agonist activity (TNFα production; [3])?
A: Its Agonist activity is 30 to 100 µM.

Q: What about the “toxicity (in words)” value (THP-1 macrophages; XTT reduction) of the same compound?
A: Its value is “toxic at high concentrations”.

Q: And the Toxicity (THP-1 macrophages; [4])?
A: The Toxicity was greater than 30 µM.

Q: What does the source list for `CO[C@H]1OC(COC(=O)CCC(=O)OC[C@H](NC(=O)OCC2c3ccccc3-c3ccccc32)C(=O)OC(C)(C)C)[C@@H](O)[C@H](OCc2ccccc2)C1OCc1ccccc1` (stereo partly drawn) [Compound 10, Methyl 2,3-di-O-benzyl-6-O-(4-((S)-2-(9-fluorenylmethoxyearbonyl)amino-3-(tert-butoxy)-3-oxopropyl)oxy-4-oxobutanoyl)-α-D-glycopyranoside]?
A: LPS antagonistic activity ([1]; THP-1 macrophages): do not display LPS antagonistic activity; inhibitory activity against LPS-induced TNFα production [1]: no inhibitory activity; TNFα inhibition (IC50) [1, 5]: None observed; Agonist activity (TNFα production; [3]): None observed; agonist activity in the absence of LPS (TNFα production): no agonist activity; Toxicity (THP-1 macrophages; [4]): None observed

Q: What does the source list for `CCCCCCCCCCCCCCO[C@H]1[C@@H](OC)O[C@H](COC(=O)CCC(=O)OC[C@H](NC(=O)OCC2c3ccccc3-c3ccccc32)C(=O)O)[C@@H](O)[C@@H]1OCCCCCCCCCCCCCC` [Compound 24, Methyl 6-O-(4-((S)-2-(9-fluorenylmethoxycarbonyl)amino-2-carboxyethyl)oxy-4-oxobutanoyl)-2,3-di-O-tetradecanyl-α-D-glucopyranoside]?
A: inhibition at 1 µM ([1]; Homo sapiens, THP-1, 1 μM compound): 70%; inhibition at 40 µM ([1]; Homo sapiens, THP-1, 40 μM compound, read-out: overall inhibition of LPS-induced TNFα production): 90%; IC50 ([1]; Macrophage, LPS-induced TNFα production in human macrophages, FIG. 5, read-out: IC50, curve fitting of the inhibition data): 0.47 µM; LPS antagonistic activity ([1]; THP-1 macrophages): significant LPS antagonistic activity; IC50 [1, 2]: 0.5 µM; Agonist activity (TNFα production; [3]): None observed; Agonist activity (TNFα production; tested 0.2 to 40 μM range): no toxicity or agonist activity; toxicity (in words) (THP-1 macrophages; XTT reduction): without toxicity; Toxicity (THP-1 macrophages; [4]): None observed; Toxicity (THP-1 macrophages; tested 0.2 to 40 μM range): no toxicity

Q: Which results are given for `CO[C@H]1O[C@H](COC(=O)CCC(=O)OC[C@H](N)C(=O)O)[C@@H](O)[C@H](OCc2ccccc2)[C@H]1OCc1ccccc1` [Compound 13, Methyl 2,3-di-O-benzyl-6-O-(4-((S)-2-amino-2-carboxyethyl)oxy-4-oxobutanoyl)-α-D-glycopyranoside]?
A: LPS antagonistic activity ([1]; THP-1 macrophages): do not display LPS antagonistic activity; inhibitory activity against LPS-induced TNFα production [1]: no inhibitory activity; TNFα inhibition (IC50) [1, 5]: None observed; Agonist activity (TNFα production; [3]): None observed; agonist activity in the absence of LPS (TNFα production): no agonist activity; Toxicity (THP-1 macrophages; [4]): None observed

Q: Which LPS response blocked ([1]; 5 μM compound) does the source give for `CCCCCCCCCCCCCC(=O)O[C@H]1[C@@H](OC)O[C@H](COC(=O)CCC(=O)OC[C@H](NC(=O)OCC2c3ccccc3-c3ccccc32)C(=O)O)[C@@H](O)[C@@H]1OC(=O)CCCCCCCCCCCCC` [Compound 19, Methyl 6-O-(4-((S)-2-(9-fluorenylmethoxyearbonyl)amino-2-carboxyethyl)oxy-4-oxobutanoyl)-2,3-di-O-tetradecanoyl-α-D-glucopyranoside] here?
A: Its LPS response blocked is 80%.

Q: What about the “concentration at which inhibition of LPS-induced TNFα begins” value ([1]; THP-1 macrophages) of the same compound?
A: Its value is no less than 550 nM.

Q: What about the “LPS antagonistic activity” value ([1]; THP-1 macrophages) of the same compound?
A: Its value is “highly potent LPS antagonistic activity”.

Q: What about the IC50 [1, 2] of the same compound?
A: The IC50 was 3 µM.

Q: And the “concentration range with agonist activity” value (TNFα production)?
A: The value was 10 to 30 µM.

Q: And the Agonist activity (TNFα production; [3])?
A: Its Agonist activity is 10 to 30 µM.

Q: And the “concentration at which toxic to the cells / cell viability compromised” value (THP-1 macrophages)?
A: Its value is no less than 10 µM.

Q: What about the Toxicity (THP-1 macrophages; at 5 μM compound) of the same compound?
A: Its Toxicity is “no observable toxicity”.

Q: What about the Toxicity (THP-1 macrophages; [4]) of the same compound?
A: The Toxicity was greater than 10 µM.

Q: With `CO[C@H]1O[C@H](COC(=O)CCC(=O)OC[C@H](N)C(=O)OC(C)(C)C)[C@@H](O)[C@H](OCc2ccccc2)[C@H]1OCc1ccccc1` [Compound 12, Methyl 2,3-di-O-benzyl-6-O-(4-((S)-2-amino-3-(tert-butoxy)-3-oxopropyl)oxy-4-oxobutanoyl)-α-D-glycopyranoside] as the compound, how does the “LPS antagonistic activity” value ([1]; THP-1 macrophages) read?
A: The value was “do not display LPS antagonistic activity”.

Q: And the “inhibitory activity against LPS-induced TNFα production” value [1]?
A: Its value is “no inhibitory activity”.

Q: What about the “TNFα inhibition (IC50)” value [1, 5] of the same compound?
A: The value was “None observed”.

Q: What about the Agonist activity (TNFα production; [3]) of the same compound?
A: Its Agonist activity is “None observed”.

Q: And the “agonist activity in the absence of LPS” value (TNFα production)?
A: Its value is “no agonist activity”.

Q: What about the Toxicity (THP-1 macrophages; [4]) of the same compound?
A: The Toxicity was “None observed”.
